# Changes are numbered by the printed parent chain. Residues, ends and D or L forms follow the SMILES beside them. No end group written: not given here.
# T1: wildtype human ASIC1a (Homo sapiens, UniProt P78348)
# T1 construct: expressed in transfected cells; host or cells: Xenopus laevis oocytes (nuclear injection of pMT3 expression plasmid)
# T1 sequence (P78348 1-528): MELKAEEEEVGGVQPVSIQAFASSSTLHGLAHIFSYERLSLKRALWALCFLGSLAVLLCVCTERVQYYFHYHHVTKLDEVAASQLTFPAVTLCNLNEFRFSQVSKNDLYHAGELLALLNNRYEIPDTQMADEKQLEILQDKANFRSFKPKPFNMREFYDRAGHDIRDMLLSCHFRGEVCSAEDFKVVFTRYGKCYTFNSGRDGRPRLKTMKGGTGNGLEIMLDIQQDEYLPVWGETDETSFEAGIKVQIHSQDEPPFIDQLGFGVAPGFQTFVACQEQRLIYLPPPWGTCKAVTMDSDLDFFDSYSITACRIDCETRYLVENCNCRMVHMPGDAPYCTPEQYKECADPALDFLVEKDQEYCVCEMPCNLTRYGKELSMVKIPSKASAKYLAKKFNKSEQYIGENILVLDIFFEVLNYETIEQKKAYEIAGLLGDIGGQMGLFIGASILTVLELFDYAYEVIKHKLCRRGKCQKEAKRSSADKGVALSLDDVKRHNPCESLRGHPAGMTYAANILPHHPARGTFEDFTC
# T2: human ASIC1a L280C (Homo sapiens, UniProt P78348, L280C)
# T2 construct: expressed in transfected cells; host or cells: Xenopus laevis oocytes (nuclear injection of pMT3 expression plasmid)
# T2 sequence (P78348 1-528 L280C): T1 sequence (P78348 1-528) with L280C
# T3: human ASIC1a L280C (human) (UniProt P78348)
# T3 sequence: T1 sequence (P78348 1-528) with L280C
# T4: human acid-sensing ion channel 1a (hASIC1a), wild type (human) (UniProt P78348)
# T4 sequence: T1 sequence (P78348 1-528)
# What was measured:
# wildtype human ASIC1a = target: T1, wildtype human ASIC1a; test: FRRFa modulation of acid-evoked currents, two-electrode voltage clamp in Xenopus oocytes; format: cell-based
# Description: (§1) The Stratagene QuikChange® site-directed mutagenesis kit (Cedar Creek, TX) was used to introduce point mutations into the human ASIC1a cDNA (GENBANK accession number NM_001095) within the pMT3 expression vector. Mutations were confirmed by DNA sequencing at the Plant-Microbe Genomics Facility at The Ohio State University and high quality plasmid DNA was prepared for injection using Qiagen (Valencia, CA) Midi prep kits. Female Xenopus laevis were purchased from Xenopus I (Dexter, MI) and Xenopus oocytes were isolated using standard procedures. This work was implemented in accordance with the Guide for the Care and Use of Laboratory Animals of the National Institutes of Health and approved by the Institutional Animal Care and Use Committee of The Ohio State University (protocol # 2009A0161-R1). The oocyte removal surgery was performed under tricaine methanesulfonate (MS222) anesthesia and all efforts were made to minimize suffering. Ovarian lobes were removed and digested for 1.5-2 hours at room temperature with 1.2 mg/ml collagenase in Modified Barth’s solution lacking calcium (24 mM NaHCO3, 88 mM NaCl, 15 mM HEPES, 1 mM KCl, 0.8 mM MgSO4, 125 units/liter penicillin/streptomycin) to separate individual oocytes and remove follicular membranes. Healthy stage IV and V oocytes were selected and maintained in Modified Barth’s solution containing calcium (0.4 mM CaCl2 and 0. 3 mM Ca(NO3)2). The nuclei of isolated oocytes were injected with ~5 ng of a 100 ng/µl stock of wildtype or mutant ASIC1a expression plasmids using a PV820 pneumatic picopump (World Precision Instruments, Sarasota, FL). Oocytes were incubated at 18 °C for 18-96 hours before experiments were performed. […]
# (§2) In order to obtain the pH dependence of activation, basal pH was maintained at pH 7.4. […] Peak current amplitude was measured for each test pH and normalized to the average peak amplitude of flanking pH 5.0 currents to minimize the impact of potential tachyphylaxis. […] As before, maximal currents were measured before and after test conditioning pH to minimize the effect of possible tachyphylaxis of proton-gated current. […]
# human ASIC1a L280C [1] = target: T2, human ASIC1a L280C; test: FRRFa / FRRF (no amide) modulation of acid-evoked currents, two-electrode voltage clamp in Xenopus oocytes; format: cell-based
# Description: as §1, §2
# wildtype ASIC1a = test: MTSET exposure, two-electrode voltage clamp in Xenopus oocytes; format: cell-based, human
# Description: (§3) The Stratagene QuikChange® site-directed mutagenesis kit (Cedar Creek, TX) was used to introduce point mutations into the human ASIC1a cDNA (GENBANK accession number NM_001095) within the pMT3 expression vector. Mutations were confirmed by DNA sequencing at the Plant-Microbe Genomics Facility at The Ohio State University and high quality plasmid DNA was prepared for injection using Qiagen (Valencia, CA) Midi prep kits. Female Xenopus laevis were purchased from Xenopus I (Dexter, MI) and Xenopus oocytes were isolated using standard procedures. This work was implemented in accordance with the Guide for the Care and Use of Laboratory Animals of the National Institutes of Health and approved by the Institutional Animal Care and Use Committee of The Ohio State University (protocol # 2009A0161-R1). The oocyte removal surgery was performed under tricaine methanesulfonate (MS222) anesthesia and all efforts were made to minimize suffering. Ovarian lobes were removed and digested for 1.5-2 hours at room temperature with 1.2 mg/ml collagenase in Modified Barth’s solution lacking calcium (24 mM NaHCO3, 88 mM NaCl, 15 mM HEPES, 1 mM KCl, 0.8 mM MgSO4, 125 units/liter penicillin/streptomycin) to separate individual oocytes and remove follicular membranes. Healthy stage IV and V oocytes were selected and maintained in Modified Barth’s solution containing calcium (0.4 mM CaCl2 and 0. 3 mM Ca(NO3)2). The nuclei of isolated oocytes were injected with ~5 ng of a 100 ng/µl stock of wildtype or mutant ASIC1a expression plasmids using a PV820 pneumatic picopump (World Precision Instruments, Sarasota, FL). Oocytes were incubated at 18 °C for 18-96 hours before experiments were performed.
# The two-electrode voltage clamp technique was used to measure whole cell currents from Xenopus oocytes heterologously expressing ASIC1a channels as described. Electrodes were pulled using a Sutter P-97 micropipette puller (Sutter Instrument Co., Novato, CT) and filled with 3 M KCl (pipette resistance of 0.5–2 MΩ). Oocyte recordings were done in a modified RC-Z3 250 µl oocyte recording chamber (Warner Instruments, Hamden, CT). Data were acquired using an Oocyte Clamp OC-725 Amplifier (Warner Instruments, Hamden, CT) and a Powerlab 4SP digitizer with CHART5 software (ADI Instruments, Colorado Springs, CO). […]
# as §2
# human ASIC1a L280C [2] = target: T2, human ASIC1a L280C; test: MTSET modification of the cysteine mutant (residual current read-out), closed vs desensitized state; format: cell-based
# Description: as §3
# The two-electrode voltage clamp technique was used to measure whole cell currents from Xenopus oocytes heterologously expressing ASIC1a channels as described. Electrodes were pulled using a Sutter P-97 micropipette puller (Sutter Instrument Co., Novato, CT) and filled with 3 M KCl (pipette resistance of 0.5–2 MΩ). Oocyte recordings were done in a modified RC-Z3 250 µl oocyte recording chamber (Warner Instruments, Hamden, CT). Data were acquired using an Oocyte Clamp OC-725 Amplifier (Warner Instruments, Hamden, CT) and a Powerlab 4SP digitizer with CHART5 software (ADI Instruments, Colorado Springs, CO). Except where noted, the extracellular solution contained (in mM): 116 NaCl, 2 KCl, 5 HEPES, 5 MES, 2 CaCl2, 1 MgCl2, with pH adjusted using 1N NaOH. The solution exchange rate in the recording chamber was ~1 ml/s. The holding potential was -60 mV unless otherwise noted. [2-(Trimethylammonium)ethyl] Methanethiosulfonate Bromide (MTSET) was purchased from Toronto Research Chemicals, Inc. (Ontario, Canada). FRRFamide peptide (FRRFa) and FRRF (no amide) were synthesized from EZBiolab, Inc. (Westfield, IN).
# Oocytes were maintained at a basal pH of 7.4 and maximal currents were established with application of pH 5.0. Currents were allowed to decay for at least 60 s. The control residual current was determined by normalizing the current remaining at 60 s to the peak amplitude (Iresidual/Itransient). After recovery, 300 µM MTSET was applied at pH 7.4 for the indicated duration and excess MTSET was washed away with at least 10 mL of pH 7.4 solution. The pH-dependence of activation and steady-state desensitization were measured as described above. During experiments using MTSET, the effect on residual current decreased slightly over time. […]
# human ASIC1a L280C [3] = target: T2, human ASIC1a L280C; test: Peptide-MTSET competition (MTSET modification in presence of peptide, residual current read-out); format: cell-based
# Description: The Stratagene QuikChange® site-directed mutagenesis kit (Cedar Creek, TX) was used to introduce point mutations into the human ASIC1a cDNA (GENBANK accession number NM_001095) within the pMT3 expression vector. Mutations were confirmed by DNA sequencing at the Plant-Microbe Genomics Facility at The Ohio State University and high quality plasmid DNA was prepared for injection using Qiagen (Valencia, CA) Midi prep kits. Female Xenopus laevis were purchased from Xenopus I (Dexter, MI) and Xenopus oocytes were isolated using standard procedures. This work was implemented in accordance with the Guide for the Care and Use of Laboratory Animals of the National Institutes of Health and approved by the Institutional Animal Care and Use Committee of The Ohio State University (protocol # 2009A0161-R1). The oocyte removal surgery was performed under tricaine methanesulfonate (MS222) anesthesia and all efforts were made to minimize suffering. […]
# Vehicle or 100 µM peptide was applied for 1 minute at pH 7.4. […] Before residual current was measured, oocytes were washed with at least 50 mL of pH 7.4 over 10 minutes in order to remove peptides. […]
# [4] = target: T3, human ASIC1a L280C (human)
# [5] = target: T4, human acid-sensing ion channel 1a (hASIC1a), wild type (human)
molecule,measurement,setting,value
"N=C(N)NCCC[C@H](NC(=O)[C@H](CCCNC(=N)N)NC(=O)[C@@H](N)Cc1ccccc1)C(=O)N[C@@H](Cc1ccccc1)C(N)=O [FRRFa, FRRFamide] (H-FRRF-NH2)",increase in τinact with FRRFamide,"wildtype human ASIC1a; 100 µM FRRFa vs control, mean ± SEM, n = 14, SEM",45 ± 6%
same,difference in response between 100µM and 300µM FRRFa,"wildtype human ASIC1a; residual current, n = 5, p = 0.69 paired t-test (not significant)",10.42% ± 11.25
same,EC50,"wildtype human ASIC1a; responses normalized to 100 µM FRRFa, mean ± SEM, n = 6-8, SEM, read-out: EC50 of FRRFa modulation (effect on residual current)",20 ± 4 µM
same,increase in τinact with FRRFamide,"human ASIC1a L280C [1]; 100 µM FRRFa vs control, mean ± SEM, n = 17, p = 6x10^-5 vs wildtype, SEM",131 ± 16%
same,EC50,"human ASIC1a L280C [1]; responses normalized to 100 µM FRRFa, mean ± SEM, n = 6-8, p = 0.34 vs wildtype, SEM, read-out: EC50 of FRRFa modulation (effect on residual current)",14 ± 4 µM
"C[N+](C)(C)CCSS(C)(=O)=O.[Br-] [MTSET, [2-(Trimethylammonium)ethyl] Methanethiosulfonate Bromide]",% residual current after MTS,"wildtype ASIC1a; 300 µM MTSET at pH 7.4, before MTS 0.16 ± 0.05%, n = 3, p = 0.3",0.31 ± 0.04%
same,τinact after MTS,"wildtype ASIC1a; 300 µM MTSET at pH 7.4, before MTS 1.8 ± 0.2 s, n = 3, p = 0.9",1.8 ± 0.2 s
same,"steady-state desensitization, conditioning pH6.7/7.4 after MTS","wildtype ASIC1a; 300 µM MTSET, before MTS 1.8 ± 0.7%, n = 3, p = 0.2",1.5 ± 0.6%
same,activation pH6.5/5.0 after MTS,"wildtype ASIC1a; 300 µM MTSET, before MTS 66 ± 10%, n = 3, p = 0.7",62 ± 3%
same,run down of MTSET effect: decrease in residual current with repeated pH 5.0 applications,"human ASIC1a L280C [2]; L280C after MTSET modification, n = 8, p = 0.003 paired t-test",17 ± 5%
same,run down of MTSET effect: decrease in inactivation rate with repeated pH 5.0 applications,"human ASIC1a L280C [2]; L280C after MTSET modification, n = 8, p = 0.01 paired t-test",31 ± 9%
same,run down of MTSET effect: decrease in peak amplitude with repeated pH 5.0 applications,"human ASIC1a L280C [2]; L280C after MTSET modification, n = 8, p = 0.02 paired t-test",5%
same,time until MTSET modification observed (increase in residual current),"human ASIC1a L280C [2]; L280C closed state, pH 6.8, 5.0 mM Ca2+ conditioning, 300 µM MTSET",≤ 2 min
same,MTSET modification in the desensitized state,"human ASIC1a L280C [2]; L280C desensitized state, pH 6.8, nominal Ca2+-free conditioning, 300 µM MTSET up to 6 minutes",did not appreciably modify L280C
same,time until MTSET modulation plateaued in presence of vehicle,human ASIC1a L280C [3]; 300 µM MTSET at pH 7.4 with vehicle,5 min
"FRRF [FRRF (no amide), peptide FRRF lacking the c-terminal amide, used as a control]",residual current (Iresidual/Itransient),"human ASIC1a L280C [1]; 100 µM peptide 1 min at pH 7.4 before pH 5.0, current at 60 s normalized to peak, p = 2x10^-6 vs FRRFa",5.6 ± 0.8%
same,effect of peptide on MTSET modification,human ASIC1a L280C [3]; 100 µM peptide + 300 µM MTSET at pH 7.4,did not interfere with MTSET modification
FRRF-NH2 [FRRFamide peptide],"EC50 of FRRFa modulation of the residual current of pH 5.0-evoked currents (two-electrode voltage clamp, Xenopus oocytes; responses normalised to 100 µM FRRFa)",[4],14 µM
same,"EC50 of FRRFa modulation of the residual current of pH 5.0-evoked currents (two-electrode voltage clamp, Xenopus oocytes; responses normalised to 100 µM FRRFa)",[5],20 µM
